Experimental data taken from patent US9555029B2 (HIKMA PHARMACEUTICALS, priority 2013, dated 2017).
Where two headings read alike, the source gives them in different places.

Legend:
[1] = Colchicine pharmacokinetics coadministered with fluconazole
Protocol: The inhibitor dosage form was an oral 200 mg tablet of Diflucan® (fluconazole, from Pfizer).
The fluconazole trial differed from the Example 2 protocol as follows.

[2] = cited from earlier work; for Kel / T1/2el: arithmetic mean; for AUCT / Cmax: geometric mean
[3] = for AUCT/∞ / Kel / T1/2el: mean
From the text: Subjects were included only if they were not older than 45 years (as opposed to no upper limit). Also, in inclusion criteria the lower threshold for the body mass index was 21.00 (as opposed to 18.00) kg/m^2.

[4] = cited from earlier work
[5] = cited from earlier work; for AUCT / Cmax: geometric mean
[6] = cited from earlier work; for Kel / T1/2el: arithmetic mean
[7] = Treatment-1: colchicine 0.6 mg alone (day 1, fasted), ritonavir study, cited from earlier work
[8] = Treatment-1 (day 1): colchicine 0.6 mg alone, fasted, fluconazole study, mean
[9] = Treatment-2 (day 9): colchicine 0.6 mg + fluconazole 200 mg after double dose day 4, once daily days 5-8, fasted, mean
[10] = co-administration of fluconazole vs colchicine alone
[11] = Treatment-1: colchicine 0.6 mg alone (day 1, fasted), cyclosporine study
[12] = Treatment-2: colchicine 0.6 mg + cyclosporine 100 mg once (day 15)
[13] = Treatment-1 (day 1): colchicine 0.6 mg alone, fasted, propafenone study
[14] = Treatment-2 (day 9): colchicine 0.6 mg + propafenone 225 mg after twice daily days 4-8, fasted
[15] = coadministration with propafenone vs colchicine alone
[16] = Treatment-1: colchicine 0.6 mg alone (day 1, fasted), ketoconazole study, arithmetic mean
[17] = Treatment-1: colchicine 0.6 mg alone (day 1, fasted), ketoconazole study
[18] = Treatment-2: colchicine 0.6 mg (day 19) + ketoconazole 200 mg twice daily
[19] = Treatment-1: colchicine 0.6 mg alone (day 1, fasted), verapamil ER study
[20] = Treatment-1: colchicine 0.6 mg alone (day 1, fasted), verapamil ER study, geometric mean
[21] = Treatment-2: colchicine 0.6 mg (day 19) + verapamil ER 240 mg once daily (days 15-19)

## COc1cc2c(c(OC)c1OC)-c1ccc(OC)c(=O)cc1[C@@H](NC(C)=O)CC2 [Colchicine, (S)N-(5,6,7,9-tetrahydro-1,2,3,10-tetramethoxy-9-oxobenzo[alpha]heptalen-7-yl)acetamide]
[1]; [8]
  AUCT/∞: 85.33%
  Kel: 0.0206 h⁻¹
  T1/2el: 34.05 h
[1]; [9]
  AUCT/∞: 83.54%
  Kel: 0.0204 h⁻¹
  T1/2el: 34.51 h
[1]; [10]
  Increase of mean Cmax for colchicine: 13%
  Increase of overall exposure of colchicine (AUC): 40%
[1]; male, human, in vivo, 0.6 mg
  CL/F: 610 mL/min
  Tmax: 1.25 h
  Vd/F: 1810 L
[1]; male, human, in vivo, 0.6 mg, AUCT GEOMETRIC LSMEANS, Treatment-1: colchicine 0.6 mg alone, fluconazole study
  AUC(0-t): 14.5 ng·h/mL
[1]; male, human, in vivo, 0.6 mg, AUCT, Treatment-1 (day 1): colchicine 0.6 mg alone, fasted, fluconazole study, mean
  AUC(0-t): 14.9 ng·h/mL
[1]; male, human, in vivo, 0.6 mg, AUC∞ GEOMETRIC LSMEANS, Treatment-1: colchicine 0.6 mg alone, fluconazole study
  AUC(0-inf): 17 ng·h/mL
[1]; male, human, in vivo, 0.6 mg, AUC∞, Treatment-1 (day 1): colchicine 0.6 mg alone, fasted, fluconazole study, mean
  AUC(0-inf): 17.5 ng·h/mL
[1]; male, human, in vivo, 0.6 mg, Cmax GEOMETRIC LSMEANS, Treatment-1: colchicine 0.6 mg alone, fluconazole study
  Cmax: 1.81 ng/mL
[1]; male, human, in vivo, 0.6 mg, Cmax, Treatment-1 (day 1): colchicine 0.6 mg alone, fasted, fluconazole study, mean
  Cmax: 1.93 ng/mL
[1]; male, human, in vivo, AUCT GEOMETRIC LSMEANS, Treatment-2: colchicine 0.6 mg + fluconazole
  AUC(0-t): 20.4 ng·h/mL
[1]; male, human, in vivo, AUCT, Treatment-2 (day 9): colchicine 0.6 mg + fluconazole 200 mg after double dose day 4, once daily days 5-8, fasted, mean
  AUC(0-t): 21.3 ng·h/mL
[1]; male, human, in vivo, AUC∞ GEOMETRIC LSMEANS, Treatment-2: colchicine 0.6 mg + fluconazole
  AUC(0-inf): 24.4 ng·h/mL
[1]; male, human, in vivo, AUC∞, Treatment-2 (day 9): colchicine 0.6 mg + fluconazole 200 mg after double dose day 4, once daily days 5-8, fasted, mean
  AUC(0-inf): 25.6 ng·h/mL
[1]; male, human, in vivo, Cmax GEOMETRIC LSMEANS, Treatment-2: colchicine 0.6 mg + fluconazole
  Cmax: 2.05 ng/mL
[1]; male, human, in vivo, Cmax, Treatment-2 (day 9): colchicine 0.6 mg + fluconazole 200 mg after double dose day 4, once daily days 5-8, fasted, mean
  Cmax: 2.3 ng/mL
[2]; [11]
  Kel: 0.147 h⁻¹
  T1/2el: 6.777 h
  CLTOT/F: 48.24 L/h
  AUCT: 12,555 pg · h/mL
  Cmax: 2,720 pg/mL
[2]; [12]
  Kel: 0.038 h⁻¹
  T1/2el: 20.65 h
  CLTOT/F: 13.42 L/h
  AUCT: 29,830 pg · h/mL
  Cmax: 8,820 pg/mL
[3]; [13]
  AUCT/∞: 88.21%
  Kel: 0.0241 h⁻¹
  T1/2el: 29.74 h
[3]; [14]
  AUCT/∞: 89.16%
  Kel: 0.0250 h⁻¹
  T1/2el: 28.25 h
[3]; Treatment-2 (day 9): colchicine 0.6 mg + propafenone 225 mg after twice daily days 4-8, fasted, median
  Tmax (median hours): 1.00 h
[3]; [15]
  Increase of colchicine AUC: 1%
  Increase of colchicine Cmax: 7%
[4]; in vivo
  Colchicine passing unchanged in the urine: up to 20%
[4]; oral, patients with normal organ function
  Time to peak concentrations in the blood: ≤ 2 h
[5]; [16]
  Kel: 0.1491 h⁻¹
  T1/2el: 6.28 h
[5]; [17]
  CLTOT/F: 49.3 L/h
  AUCT: 11,990 pg · h/mL
  Cmax: 2,780 pg/mL
[5]; Treatment-2: colchicine 0.6 mg (day 19) + ketoconazole 200 mg twice daily, arithmetic mean
  T1/2el: 26.06 h
[5]; [18]
  CLTOT/F: 14.8 L/h
  AUCT: 34,380 pg · h/mL
  Cmax: 5,270 pg/mL
[6]; [19]
  Kel: 0.1409 h⁻¹
  T1/2el: 4.3 h
  CLTOT/F: 43.93 L/h
[6]; [20]
  AUCT: 13,090 pg · h/mL
  Cmax: 2,970 pg/mL
[6]; [21]
  Kel: 0.0480 h⁻¹
  T1/2el: 17.17 h
  CLTOT/F: 21.01 L/h
[6]; Treatment-2: colchicine 0.6 mg (day 19) + verapamil ER 240 mg once daily (days 15-19), geometric mean
  Cmax: 3,850 pg/mL
[7]; arithmetic mean
  Kel: 0.1666 h⁻¹
  T1/2el: 5.15 h
[7]
  CLTOT/F: 67.93 L/h
[7]; geometric mean
  AUCT: 8,410 pg · h/mL
  Cmax: 1,870 pg/mL
